One block for each compound: values may come before it.
Assays:
Test in all cases: Competitive isoTOP-ABPP, cell lysates
Format in all cases: binding
IRAK1 C608 (P51617) = IRAK1 C608 (P51617) (Homo sapiens, UniProt P51617); conditions: for R value (DMSO/fragment) / isoTOP-ABPP ratio, P51617_C608: 500 μM, invitro, ramos; for isoTOP-ABPP ratio (reactivity profile), P51617_C608: 500 μm in-vitro ramos; for isoTOP-ABPP reactivity ratio, P51617_C608 / isoTOP-ABPP reactivity profile ratio, P51617_C608: 500 μm
USP34 C741 (Q70CQ2) = USP34 C741 (Q70CQ2) (Homo sapiens, UniProt Q70CQ2)
POU2F2 C346 (P09086) = molecular target: T1, POU2F2 C346 (P09086) (Homo sapiens, UniProt P09086); conditions: for R value (DMSO/fragment) / isoTOP-ABPP ratio, P09086_C346: 500 μM
T1 sequence (P09086 1-479): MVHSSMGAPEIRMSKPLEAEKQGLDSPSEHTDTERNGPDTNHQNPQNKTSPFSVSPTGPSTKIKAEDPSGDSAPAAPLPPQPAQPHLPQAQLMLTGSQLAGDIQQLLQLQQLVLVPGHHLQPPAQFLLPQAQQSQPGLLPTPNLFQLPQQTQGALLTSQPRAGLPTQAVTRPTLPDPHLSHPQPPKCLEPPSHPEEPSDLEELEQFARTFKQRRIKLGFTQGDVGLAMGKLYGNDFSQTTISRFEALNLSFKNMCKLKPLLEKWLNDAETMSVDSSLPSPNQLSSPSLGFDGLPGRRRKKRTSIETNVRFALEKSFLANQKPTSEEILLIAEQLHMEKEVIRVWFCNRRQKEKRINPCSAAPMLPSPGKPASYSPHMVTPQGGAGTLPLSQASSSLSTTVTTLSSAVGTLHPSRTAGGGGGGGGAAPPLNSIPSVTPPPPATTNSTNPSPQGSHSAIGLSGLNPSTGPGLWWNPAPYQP

PELI1 C282 (Q96FA3) = molecular target: T2, PELI1 C282 (Q96FA3) (Homo sapiens, UniProt Q96FA3); conditions: for isoTOP-ABPP ratio (reactivity profile), Q96FA3_C282: 500 μm in-vitro ramos; for isoTOP-ABPP reactivity ratio, Q96FA3_C282 / isoTOP-ABPP reactivity profile ratio, Q96FA3_C282: 500 μm, in-vitro_ramos
T2 sequence (Q96FA3 1-418): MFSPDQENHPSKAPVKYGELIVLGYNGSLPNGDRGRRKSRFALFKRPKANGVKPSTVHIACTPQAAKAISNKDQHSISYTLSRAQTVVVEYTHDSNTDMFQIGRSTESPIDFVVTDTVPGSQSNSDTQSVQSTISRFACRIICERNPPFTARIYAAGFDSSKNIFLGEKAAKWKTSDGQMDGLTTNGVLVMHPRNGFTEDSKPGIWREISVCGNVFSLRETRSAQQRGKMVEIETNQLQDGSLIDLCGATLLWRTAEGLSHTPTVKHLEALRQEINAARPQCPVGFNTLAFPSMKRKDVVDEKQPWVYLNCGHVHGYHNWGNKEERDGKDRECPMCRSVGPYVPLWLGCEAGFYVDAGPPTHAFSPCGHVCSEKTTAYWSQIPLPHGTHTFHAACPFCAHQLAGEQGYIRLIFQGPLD

Chain of IRAK1 C608 (P51617) (P51617 whole entry, the tested form may be a part): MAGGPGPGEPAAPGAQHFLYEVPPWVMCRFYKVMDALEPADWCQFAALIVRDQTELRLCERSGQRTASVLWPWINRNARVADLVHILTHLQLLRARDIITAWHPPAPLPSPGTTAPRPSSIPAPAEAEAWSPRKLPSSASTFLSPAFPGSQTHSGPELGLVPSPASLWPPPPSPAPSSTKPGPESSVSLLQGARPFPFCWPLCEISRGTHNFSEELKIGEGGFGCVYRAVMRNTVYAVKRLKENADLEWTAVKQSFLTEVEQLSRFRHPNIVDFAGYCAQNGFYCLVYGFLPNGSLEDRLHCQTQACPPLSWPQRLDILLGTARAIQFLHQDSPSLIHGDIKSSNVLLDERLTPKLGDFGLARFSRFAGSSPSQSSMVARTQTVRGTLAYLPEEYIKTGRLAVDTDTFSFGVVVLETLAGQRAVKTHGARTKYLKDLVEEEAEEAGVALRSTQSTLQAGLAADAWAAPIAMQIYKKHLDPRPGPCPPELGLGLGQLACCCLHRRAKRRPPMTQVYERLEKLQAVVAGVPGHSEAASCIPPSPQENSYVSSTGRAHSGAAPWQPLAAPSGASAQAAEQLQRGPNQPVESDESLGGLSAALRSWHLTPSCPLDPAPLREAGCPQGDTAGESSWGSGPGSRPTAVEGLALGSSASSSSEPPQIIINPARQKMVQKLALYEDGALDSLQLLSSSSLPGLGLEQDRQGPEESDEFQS
Chain of USP34 C741 (Q70CQ2) (Q70CQ2 whole entry, the tested form may be a part): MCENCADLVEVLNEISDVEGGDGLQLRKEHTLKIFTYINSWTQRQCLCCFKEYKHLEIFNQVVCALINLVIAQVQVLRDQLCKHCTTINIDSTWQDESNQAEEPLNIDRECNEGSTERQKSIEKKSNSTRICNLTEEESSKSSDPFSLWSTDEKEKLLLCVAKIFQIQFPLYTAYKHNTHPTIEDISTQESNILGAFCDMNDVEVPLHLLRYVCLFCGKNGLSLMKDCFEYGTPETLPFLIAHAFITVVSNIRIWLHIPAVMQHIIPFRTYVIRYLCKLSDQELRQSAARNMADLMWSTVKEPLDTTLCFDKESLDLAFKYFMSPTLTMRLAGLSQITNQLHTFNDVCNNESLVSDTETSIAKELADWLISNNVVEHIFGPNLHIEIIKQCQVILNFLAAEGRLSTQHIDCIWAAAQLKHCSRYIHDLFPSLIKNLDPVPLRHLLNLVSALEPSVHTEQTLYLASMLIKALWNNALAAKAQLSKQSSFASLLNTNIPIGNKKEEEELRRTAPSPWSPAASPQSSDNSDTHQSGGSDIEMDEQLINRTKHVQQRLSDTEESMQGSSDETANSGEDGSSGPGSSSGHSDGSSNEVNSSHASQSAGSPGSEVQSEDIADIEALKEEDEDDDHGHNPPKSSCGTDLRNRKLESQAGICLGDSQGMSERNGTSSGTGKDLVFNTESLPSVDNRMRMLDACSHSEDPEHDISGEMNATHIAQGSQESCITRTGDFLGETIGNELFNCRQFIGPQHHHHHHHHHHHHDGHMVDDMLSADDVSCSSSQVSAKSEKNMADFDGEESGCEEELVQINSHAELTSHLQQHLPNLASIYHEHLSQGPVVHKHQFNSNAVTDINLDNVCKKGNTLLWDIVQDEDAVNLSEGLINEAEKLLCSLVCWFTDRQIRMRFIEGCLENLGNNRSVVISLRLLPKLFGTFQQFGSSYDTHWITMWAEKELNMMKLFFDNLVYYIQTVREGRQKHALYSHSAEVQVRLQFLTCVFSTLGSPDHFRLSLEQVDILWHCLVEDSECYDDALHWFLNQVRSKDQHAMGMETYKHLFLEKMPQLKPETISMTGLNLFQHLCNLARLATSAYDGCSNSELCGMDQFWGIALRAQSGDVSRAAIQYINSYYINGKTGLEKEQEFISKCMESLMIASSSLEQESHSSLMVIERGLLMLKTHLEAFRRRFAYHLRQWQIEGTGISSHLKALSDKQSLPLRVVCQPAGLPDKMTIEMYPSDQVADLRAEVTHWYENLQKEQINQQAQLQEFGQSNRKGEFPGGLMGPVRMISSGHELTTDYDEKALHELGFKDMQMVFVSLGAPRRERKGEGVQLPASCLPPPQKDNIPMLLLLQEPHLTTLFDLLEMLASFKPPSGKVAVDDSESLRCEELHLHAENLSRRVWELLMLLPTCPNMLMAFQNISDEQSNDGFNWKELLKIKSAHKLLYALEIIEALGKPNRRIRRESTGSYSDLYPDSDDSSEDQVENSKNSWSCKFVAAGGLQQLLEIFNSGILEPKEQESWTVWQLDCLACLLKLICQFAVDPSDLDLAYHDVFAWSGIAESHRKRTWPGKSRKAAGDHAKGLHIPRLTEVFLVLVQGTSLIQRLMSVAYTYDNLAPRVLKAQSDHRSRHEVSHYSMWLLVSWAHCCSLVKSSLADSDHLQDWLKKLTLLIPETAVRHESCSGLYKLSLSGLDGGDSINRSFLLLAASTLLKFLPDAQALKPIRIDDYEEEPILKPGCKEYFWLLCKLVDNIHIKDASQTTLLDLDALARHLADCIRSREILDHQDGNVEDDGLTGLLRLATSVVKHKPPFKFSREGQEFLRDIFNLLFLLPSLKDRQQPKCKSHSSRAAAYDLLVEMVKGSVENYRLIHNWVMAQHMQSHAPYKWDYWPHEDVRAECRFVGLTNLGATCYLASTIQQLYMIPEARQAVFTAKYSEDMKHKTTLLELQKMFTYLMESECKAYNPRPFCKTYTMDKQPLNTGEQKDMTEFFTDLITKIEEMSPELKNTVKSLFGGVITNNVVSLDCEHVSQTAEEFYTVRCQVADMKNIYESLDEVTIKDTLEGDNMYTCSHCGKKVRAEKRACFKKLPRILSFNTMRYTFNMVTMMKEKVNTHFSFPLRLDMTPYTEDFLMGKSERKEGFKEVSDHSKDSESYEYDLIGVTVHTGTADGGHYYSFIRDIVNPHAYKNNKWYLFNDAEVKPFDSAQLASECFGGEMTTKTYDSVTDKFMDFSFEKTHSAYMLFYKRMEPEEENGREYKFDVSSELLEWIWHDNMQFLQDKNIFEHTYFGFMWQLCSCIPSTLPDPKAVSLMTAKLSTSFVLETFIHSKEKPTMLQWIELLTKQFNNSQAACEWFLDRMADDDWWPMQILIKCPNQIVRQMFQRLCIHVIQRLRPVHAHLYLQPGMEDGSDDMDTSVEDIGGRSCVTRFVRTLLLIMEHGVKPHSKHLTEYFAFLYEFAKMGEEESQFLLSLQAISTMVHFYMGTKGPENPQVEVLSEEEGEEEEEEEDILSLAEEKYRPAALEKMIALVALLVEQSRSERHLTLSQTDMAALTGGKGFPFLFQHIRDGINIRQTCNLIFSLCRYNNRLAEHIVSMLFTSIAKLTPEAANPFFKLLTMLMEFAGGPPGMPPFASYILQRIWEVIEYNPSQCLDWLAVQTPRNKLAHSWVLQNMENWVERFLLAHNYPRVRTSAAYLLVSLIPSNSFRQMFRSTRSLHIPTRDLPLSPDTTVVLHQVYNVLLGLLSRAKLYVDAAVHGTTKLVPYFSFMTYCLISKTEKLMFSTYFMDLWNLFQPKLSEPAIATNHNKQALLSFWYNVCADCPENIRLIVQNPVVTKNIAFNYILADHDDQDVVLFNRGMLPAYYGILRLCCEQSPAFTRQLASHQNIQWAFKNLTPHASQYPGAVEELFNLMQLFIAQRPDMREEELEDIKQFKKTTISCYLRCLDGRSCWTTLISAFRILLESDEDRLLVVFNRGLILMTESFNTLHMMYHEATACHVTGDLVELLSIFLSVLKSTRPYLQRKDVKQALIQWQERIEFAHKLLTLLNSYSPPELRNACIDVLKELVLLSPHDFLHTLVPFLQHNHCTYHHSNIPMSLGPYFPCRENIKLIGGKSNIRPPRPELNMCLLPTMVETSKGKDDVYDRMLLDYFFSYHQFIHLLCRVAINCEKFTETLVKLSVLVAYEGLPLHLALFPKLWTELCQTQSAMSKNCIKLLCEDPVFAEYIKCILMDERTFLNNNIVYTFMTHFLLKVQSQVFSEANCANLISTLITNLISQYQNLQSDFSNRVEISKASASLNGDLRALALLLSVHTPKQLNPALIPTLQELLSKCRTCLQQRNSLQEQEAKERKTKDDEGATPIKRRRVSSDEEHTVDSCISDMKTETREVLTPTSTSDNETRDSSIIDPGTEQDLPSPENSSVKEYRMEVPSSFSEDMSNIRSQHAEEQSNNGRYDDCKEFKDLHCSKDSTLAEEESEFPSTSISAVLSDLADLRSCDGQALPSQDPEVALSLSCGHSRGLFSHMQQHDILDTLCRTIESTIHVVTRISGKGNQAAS

R value (DMSO/fragment) (IRAK1 C608 (P51617)): 2.5
Compound: COc1ccc2c(c1)CCCN2C(=O)CCl [compound 2]

R value (DMSO/fragment) (IRAK1 C608 (P51617)): 20.0
R value (DMSO/fragment) (USP34 C741 (Q70CQ2); 500 μM, invitro, ramos): 3.2
R value (DMSO/fragment) (POU2F2 C346 (P09086); in vitro, MDA-MB-231): 1.7
R value (DMSO/fragment) (POU2F2 C346 (P09086); invitro, ramos): 5.5
Compound: O=C(CCl)Nc1cc(C(F)(F)F)cc(C(F)(F)F)c1 [compound 3]

isoTOP-ABPP ratio, Q70CQ2_C741 (USP34 C741 (Q70CQ2); 500 μM, invitro, ramos): 0.9
Compound: O=C(CCl)N1CCN(S(=O)(=O)c2ccccc2F)CC1 [compound 10]

isoTOP-ABPP ratio, P51617_C608 (IRAK1 C608 (P51617)): 1.3
isoTOP-ABPP ratio, P09086_C346 (POU2F2 C346 (P09086); invitro, ramos): 1.7
Compound: Cn1cc(S(=O)(=O)N2CCOCC2)cc1C(=O)NC(=O)CCl [compound 11]

isoTOP-ABPP ratio, Q70CQ2_C741 (USP34 C741 (Q70CQ2); 500 μM, invitro, 231): 0.8
isoTOP-ABPP ratio, P09086_C346 (POU2F2 C346 (P09086); invitro, ramos): 0.6
Compound: O=C(CCl)NCCc1c[nH]c2ccccc12 [compound 13]

isoTOP-ABPP ratio (reactivity profile), P09086_C346 (POU2F2 C346 (P09086); 500 μm in-vitro ramos_231): 0.7
Compound: CC(Cl)C(=O)Nc1cc(C(F)(F)F)cc(C(F)(F)F)c1 (stereo not shown) [compound 25]

isoTOP-ABPP ratio (reactivity profile), Q96FA3_C282 (PELI1 C282 (Q96FA3)): 0.7
Compound: COc1ccccc1OCCNC(=O)CCl [compound 28]

isoTOP-ABPP reactivity ratio, Q96FA3_C282 (PELI1 C282 (Q96FA3)): 1.5
Compound: CCN(CC)c1ccc(S(N)(=O)=O)cc1NC(=O)CCl [compound 30]

isoTOP-ABPP reactivity ratio, P51617_C608 (IRAK1 C608 (P51617); in-vitro_ramos): 2.9
isoTOP-ABPP reactivity ratio, P51617_C608 (IRAK1 C608 (P51617); in-vitro_ramos_231): 5.8
Compound: CC(C)(C)c1cc(NC(=O)CCl)on1 [compound 32]

isoTOP-ABPP reactivity profile ratio, P51617_C608 (IRAK1 C608 (P51617); in-vitro_ramos): 1.1
isoTOP-ABPP reactivity profile ratio, Q70CQ2_C741 (USP34 C741 (Q70CQ2); 500 μm, in-vitro_ramos): 0.9
Compound: O=C(CCl)Nc1cccc2ncccc12 [compound 51]

isoTOP-ABPP reactivity profile ratio, P51617_C608 (IRAK1 C608 (P51617); in-vitro_ramos): 17.6
isoTOP-ABPP reactivity profile ratio, Q96FA3_C282 (PELI1 C282 (Q96FA3)): 20.0
Compound: O=C(CCl)Nc1ccc(-c2ccccc2)cc1 [compound 52]

Second part, the compound before the results:

Compound: C=CC(=O)N(c1ccccc1)c1ccc(Br)cc1 [compound 5]
isoTOP-ABPP ratio, P51617_C608 (IRAK1 C608 (P51617)): 10.1
isoTOP-ABPP ratio, P09086_C346 (POU2F2 C346 (P09086); invitro, ramos): 4.6

Compound: C=CC(=O)N(Cc1cccnc1)c1ccc(Oc2ccccc2)c(C(F)(F)F)c1 [compound 15]
isoTOP-ABPP ratio (reactivity profile), P09086_C346 (POU2F2 C346 (P09086); 500 μm in-vitro ramos): 0.8

Compound: O=C(CCl)N1CCC(C(O)(c2ccccc2)c2ccccc2)CC1 [compound 20]
isoTOP-ABPP ratio (reactivity profile), Q70CQ2_C741 (USP34 C741 (Q70CQ2); 500 μm in-vitro ramos): 1.7
isoTOP-ABPP ratio (reactivity profile), Q70CQ2_C741 (USP34 C741 (Q70CQ2); 500 μm in-vitro ramos_231): 2.8
isoTOP-ABPP ratio (reactivity profile), P09086_C346 (POU2F2 C346 (P09086); 500 μm in-vitro ramos): 2.3

Compound: O=C(CCl)NC12CC3CC(CC(C3)C1)C2 [compound 21]
isoTOP-ABPP ratio (reactivity profile), Q70CQ2_C741 (USP34 C741 (Q70CQ2); 500 μm in-vitro ramos): 1.7
isoTOP-ABPP ratio (reactivity profile), P09086_C346 (POU2F2 C346 (P09086); 500 μm in-vitro ramos_231): 0.9

Compound: N#C/C(=C\c1cc(C(F)(F)F)cc(C(F)(F)F)c1)C(N)=O [compound 23]
isoTOP-ABPP ratio (reactivity profile), P51617_C608 (IRAK1 C608 (P51617)): 1.5
isoTOP-ABPP ratio (reactivity profile), P09086_C346 (POU2F2 C346 (P09086); 500 μm in-vitro ramos): 1.1

Compound: CC(Br)C(=O)Nc1cc(C(F)(F)F)cc(C(F)(F)F)c1 (stereo not shown) [compound 24]
isoTOP-ABPP ratio (reactivity profile), P51617_C608 (IRAK1 C608 (P51617)): 1.3
isoTOP-ABPP ratio (reactivity profile), P09086_C346 (POU2F2 C346 (P09086); 500 μm in-vitro ramos): 1.1

Compound: O=C(/C=C/c1ccccc1)Nc1cc(C(F)(F)F)cc(C(F)(F)F)c1 [compound 26]
isoTOP-ABPP ratio (reactivity profile), Q96FA3_C282 (PELI1 C282 (Q96FA3)): 0.5

Compound: C=CC(=O)N(Cc1cccnc1)c1cc(C(F)(F)F)cc(C(F)(F)F)c1 [compound 31]
isoTOP-ABPP reactivity ratio, Q70CQ2_C741 (USP34 C741 (Q70CQ2); 500 μm, in-vitro_ramos_231): 4.2
isoTOP-ABPP reactivity ratio, P09086_C346 (POU2F2 C346 (P09086); 500 μm, in-vitro_ramos): 0.6

Compound: C=CC(=O)N1CCC(c2noc3ccc(F)cc23)CC1 [compound 37]
isoTOP-ABPP reactivity ratio, Q70CQ2_C741 (USP34 C741 (Q70CQ2); 500 μm, in-vitro_ramos): 1.1

Compound: C=CC(=O)Nc1cc(F)c(N2CCN(C(=O)OC(C)(C)C)CC2)c(F)c1 [compound 38]
isoTOP-ABPP reactivity ratio, P51617_C608 (IRAK1 C608 (P51617); in-vitro_ramos): 2.4
isoTOP-ABPP reactivity ratio, Q96FA3_C282 (PELI1 C282 (Q96FA3)): 7.0
isoTOP-ABPP reactivity ratio, Q70CQ2_C741 (USP34 C741 (Q70CQ2); 500 μm, in-vitro_ramos): 4.1

Compound: Cc1ccc(C=C(C#N)C(=O)NCCN2CCOCC2)cc1 [compound 41]
isoTOP-ABPP reactivity ratio, P51617_C608 (IRAK1 C608 (P51617); in-vitro_ramos_231): 1.1

Compound: N#CC(=Cc1ccc(-c2ccccc2Cl)o1)C(N)=O [compound 42]
isoTOP-ABPP reactivity profile ratio, Q96FA3_C282 (PELI1 C282 (Q96FA3)): 1.2
